The values below come from patent US5936088A, “Substituted azacyclic or azabicyclic compounds with affinity and selectivity for nicotinic cholinergic receptors” (Novo Nordisk A/S, priority 1995, dated 1999).

Data set [1] has as its target T1, nicotinic acetylcholine receptors (Rattus norvegicus, UniProt P09483+P12390).
T1 construct: Fresh or frozen rat, brain tissue (hippocampus or cortex) was homogenized; from tissue
Kind of data set: inhibition of specific binding of ^3 H-methylcarbamylcholine (^3 H-MCC). To be noted: for IC50: rat cortical receptors, ^3 H-MCC 2 nM, 0° C., 60 min. The source says:
The pharmacological properties of the compounds of the invention can be illustrated by determining their capability to inhibit the specific binding of ^3 H-methylcarbamylcholine (^3 H-MCC) (Abood and Grassi, Biochem. Pharmacol., Vol. 35, pp. 4199-4202, (1986)).
^3 H-MCC labels the nicotinic receptors in the CNS. The inhibitory effect on ^3 H-MCC binding reflects the affinity for nicotinic acetylcholine receptors.
Fresh or frozen rat, brain tissue (hippocampus or cortex) was homogenized in assay buffer (50 mM Tris-HCl, pH 7.4, 120 mM NaCl, 5 mM KCl, 2 mM CaCl2, 1 mM MgCl2) and centrifuged for 10 min. at 40.000×g. Pellets were subsequently reconstituted in assay buffer and an appropriate amount of tissue sample was mixed in tubes with ^3 H-methylcarbamylcholine (NEN, NET-951; final concentration 2 nM) and test drug. The tubes were incubated at 0° C. for 60 min. Unbound ligand was separated from bound ligand by vacuum filtration through GF/B filters presoaked in 0.5% polyethylenimine. Filters were washed three times with 5 ml wash buffer (50 mM Tris-HCl, pH 7.4) and transferred to vials. 4 ml scintillation fluid was added and the radioactivity was measured by scintillation counting. Unspecific binding was measured with 10 μM nicotine.
The IC50 values of the test compounds were determined by nonlinear regression analyses (GraphPad InPlot).
Table I illustrates the affinity of the compounds of the present invention for nicotinic and muscarinic receptors as determined by ^3 H-MCC and ^3 H-Oxo binding to rat cortical receptors. The compounds, however, show selective affinity for nicotinic receptors as compared to muscarinic receptors, i.e OXO/MCC>1.

Data set [2] addresses muscarinic acetylcholine receptors. The data set is described as follows: inhibition of specific binding of ^3 H-Oxotremorine-M (^3 H-Oxo). To be noted: rat cortical receptors; ^3 H-Oxotremorine 1.0 nM, 25° C., 30 min. The source says: Furthermore, the pharmacological properties of the compounds of the invention can also be illustrated by determining their capability to inhibit the specific binding of ^3 H-Oxotremorine-M (^3 H-Oxo). Birdsdall N. J. M., Hulme E. C., and Burgen A. S. V. (1980). "The Character of Muscarinic Receptors in Different Regions of the Rat Brain". Proc. Roy. Soc. London (Series B) 207,1.
^3 H-Oxo labels muscarinic receptor in the CNS (with a preference for agonist domains of the receptors). Three different sites are labelled by ^3 H-Oxo. […] Using the present experimental conditions only the high and medium affinity sites are determined.
The inhibitory effects of compounds on ^3 H-Oxo binding reflects the affinity for muscarinic acetylcholine receptors.
All preparations are performed at 0-4° C. unless otherwise indicated. […]
The final pellet is homogenized in 20 mM Hepes pH: 7.4 (100 ml per g of original tissue) and used for binding assay. […] Non-specific binding is determined in triplicate using arecoline (1 ug/ml, final concentration) as the test substance. […] The amount of radioactivity on the filters are determined by conventional liquid scintillation counting. […]
Table I illustrates the affinity of the compounds of the present invention for nicotinic and muscarinic receptors as determined by ^3 H-MCC and ^3 H-Oxo binding to rat cortical receptors. […]

Data set [3] relates to attention and memory. To be noted: healthy humans and Alzheimer's disease patients; cited from earlier work.
For data set [4], the system named is dopamine release in the nucleus accumbens. To be noted: nucleus accumbens versus striatum; cited from earlier work.
Data set [5] deals with dopaminergic effects. To be noted: various behavioral models; cited from earlier work.
The test system of data set [6] is Tourette's syndrome. To be noted: in vivo; cited from earlier work.
Data set [7] relates to substantia nigra. To be noted: chronic nicotine; lesioning; cited from earlier work.
The subject of data set [8] is cognition. To be noted: age related; cited from earlier work.
The target in data set [9] is muscarinic acetylcholine receptors. To be noted: read-out: affinity of ^3 H-Oxo labelled site, cited from earlier work.

Where a name gives a salt, the structure may show the parent alone. Read-outs that look alike come from different tables or passages of the source.

T1 sequence (P09483 31-630): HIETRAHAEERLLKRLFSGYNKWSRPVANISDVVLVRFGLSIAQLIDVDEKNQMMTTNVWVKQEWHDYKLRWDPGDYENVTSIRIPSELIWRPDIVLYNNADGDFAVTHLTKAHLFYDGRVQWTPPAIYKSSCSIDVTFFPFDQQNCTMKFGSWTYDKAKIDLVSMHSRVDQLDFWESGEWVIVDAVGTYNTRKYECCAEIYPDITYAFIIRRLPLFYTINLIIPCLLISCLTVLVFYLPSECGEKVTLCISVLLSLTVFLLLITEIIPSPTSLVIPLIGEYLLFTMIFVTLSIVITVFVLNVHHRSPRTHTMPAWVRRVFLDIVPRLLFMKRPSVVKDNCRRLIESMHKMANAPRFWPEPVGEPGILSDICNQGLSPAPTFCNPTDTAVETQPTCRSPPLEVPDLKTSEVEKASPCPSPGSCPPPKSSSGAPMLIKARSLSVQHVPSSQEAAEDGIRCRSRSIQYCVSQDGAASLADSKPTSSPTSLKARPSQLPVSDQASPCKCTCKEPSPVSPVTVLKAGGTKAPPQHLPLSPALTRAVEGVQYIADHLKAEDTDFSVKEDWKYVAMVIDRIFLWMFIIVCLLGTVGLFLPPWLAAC
T1 sequence (P12390 25-500): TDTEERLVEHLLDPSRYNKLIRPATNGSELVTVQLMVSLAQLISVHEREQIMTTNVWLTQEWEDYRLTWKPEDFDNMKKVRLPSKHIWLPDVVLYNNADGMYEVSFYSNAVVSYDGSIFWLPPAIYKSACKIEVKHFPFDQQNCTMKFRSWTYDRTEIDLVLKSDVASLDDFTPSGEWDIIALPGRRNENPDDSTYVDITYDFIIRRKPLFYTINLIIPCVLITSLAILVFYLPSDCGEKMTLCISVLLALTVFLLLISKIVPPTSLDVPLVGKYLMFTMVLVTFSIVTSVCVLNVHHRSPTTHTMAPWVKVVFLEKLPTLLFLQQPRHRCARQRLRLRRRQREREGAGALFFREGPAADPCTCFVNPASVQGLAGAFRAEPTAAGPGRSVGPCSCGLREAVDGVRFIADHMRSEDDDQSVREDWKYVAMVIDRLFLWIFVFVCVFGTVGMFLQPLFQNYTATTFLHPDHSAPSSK

With `CC(=O)/C=C1\CN2CCC1CC2.O=C(O)C(=O)O` [Compound 1, (Z)-3-Acetylmethylene-1-azabicyclo[2.2.2]octane oxalate], the IC50 in data set [1] was 23 nM; in data set [2], 1200 nM. Moreover, the “Oxo/MCC Ratio” value in [1] (selectivity nicotinic versus muscarinic: ^3 H-Oxo IC50 / ^3 H-MCC IC50) came to 52.

Regarding `CN1CCCC1c1cccnc1` (centres unmarked) [nicotine], in data set [3], the attention and memory result was “improved attention and memory in healthy humans”. Also, the “stimulation of dopamine release” value in [4] is listed as “stimulates dopamine release in the nucleus accumbens more potently than in striatum”. Further, the “potentiation of dopaminergic effects” value in data set [5] is “will potentiate dopaminergic effects in various behavioral models”. Further, in [6], the “effects in Tourette's syndrome” value is recorded as “shown beneficial effects in Tourette's syndrome”. In [7], the “protection against cell loss in the substantia nigra” value is on record as “may protect against cell loss in the substantia nigra caused by lesioning”.

Regarding `CNC1(C)C2CCC(C2)C1(C)C` (centres unmarked) [mecamylamine], the cognitive impairment result in data set [8] is given as “shown to cause cognitive impairment in an age related way”.

As to `C[N+](C)(C)CC#CCN1CCCC1=O` [^3 H-Oxo, ^3 H-Oxotremorine-M], the Kd was 1.8 nM in data set [9] (high affinity site); 20 nM in [9] (medium affinity site); 3000 nM in data set [9] (third (lowest affinity) site, not determined under the present conditions).

Regarding `CC(=O)/C=C1/CN2CCC1CC2` [Compound 2, (E)-3-Acetylmethylene-1-azabicyclo[2.2.2]octane oxalate], the IC50 in [1] is more than 300 nM; in [2], less than 1000 nM.
